Measurements taken from patent US5254801A, “Heterologous dominant conditional lethal gene which is a phosphonate monoester hydrolase and use thereof in plants” (Monsanto Company, priority 1990, dated 1993).
“Also recorded” adds a separate entry of the source.

Target: T1, phosphonate monoester hydrolase (PEH) (Trinickia caryophylli, UniProt Q45087)
T1 sequence (Q45087 1-514): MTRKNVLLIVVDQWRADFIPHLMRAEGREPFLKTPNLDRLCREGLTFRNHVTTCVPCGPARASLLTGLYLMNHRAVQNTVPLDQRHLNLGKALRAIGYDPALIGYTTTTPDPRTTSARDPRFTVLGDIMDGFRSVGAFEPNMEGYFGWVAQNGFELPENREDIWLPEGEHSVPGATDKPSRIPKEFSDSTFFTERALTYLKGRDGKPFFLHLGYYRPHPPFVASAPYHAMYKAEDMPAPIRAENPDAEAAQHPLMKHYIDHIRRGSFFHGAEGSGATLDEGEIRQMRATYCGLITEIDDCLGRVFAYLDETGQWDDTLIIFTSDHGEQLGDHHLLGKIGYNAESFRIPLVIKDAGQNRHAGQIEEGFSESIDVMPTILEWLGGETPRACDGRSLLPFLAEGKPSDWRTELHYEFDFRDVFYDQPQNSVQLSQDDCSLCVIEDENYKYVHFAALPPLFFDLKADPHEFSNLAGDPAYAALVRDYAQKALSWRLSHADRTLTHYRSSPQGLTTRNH
Experiment: Hydrolysis of protoxin to glyphosate by phosphonate monoester hydrolase
Assay type: biochemical, Pseudomonas caryophilli PG2982
Procedure: The critical tests for a prophytotoxin to be used in negative selection, cell ablation and as a gametocide are that the compound is non-phytotoxic per se but can be hydrolyzed into a phytotoxin by the phosphonate monoester hydrolase protein. The most general and specific method to determine if a protoxin is hydrolyzed to a toxic form of glyphosate is a HPLC assay. The compounds are dissolved at 100 mM concentration in a suitable buffer such as 10 mM TAPS, (N-Tris(hydroxymethyl)methyl-2-aminopropane sulfonic acid) pH 9.0. Triplicate samples (0.1 ml) of the compound are then diluted with 0.9 ml of 10 mM TAPS, pH 9.0 and with 0.9 ml 10 mM TAPS, pH 9.0 plus one unit (1 μmol/min) of enzyme. After 24 hour incubation at 25° C., the samples are injected onto a HPLC column for glyphosate analysis. […] The protoxin and glyphosate are separated on an anion exchange column. the glyphosate is oxidized as it elutes in the presence of bleach and is then derivatized by o-pthaldehyde to a fluorescent derivative which can be quantitatively measured by a fluorescence monitor. […] After two days, the plant is dissected into individual tissues and the amount of protoxin in each tissue determined. […] The tissue samples were then combusted and the amount of radiolabelled compound in each tissue determined by scintillation counting. […]

O=C(O)CNCP(=O)(O)OCC(O)CO (stereo not shown) [glyceryl glyphosate, glycine, N-([hydroxy (2,3 dihydroxy propoxy)phosphonyl]methyl)]
Substrate for / hydrolysis by phosphonate monoester hydrolase: is a substrate for the phosphonate monoester hydrolases; also recorded: hydrolyze the glyceryl glyphosate into glycerol and glyphosate
